Reference: patent publication US8501911B2, “Methods of reducing inflammation and mucus hypersecretion” (Biomarck Pharmaceuticals, Ltd, priority 1999, dated 2013)
Residues, ends and D or L forms follow the SMILES beside them. *: point of attachment. Myristoyl = CCCCCCCCCCCCCC(=O)*

Tests used:
[1] = tested on: MARCKS-related mucus secretion; assay: Inhibition of MARCKS-related mucus (mucin) secretion, Table 1; assay type: cell-based; conditions: at 100 μM of test peptide
HL-60 clone 15 cells = assay: Inhibition of eosinophil peroxidase (EPO) release from HL-60 clone 15 cells; assay type: cell-based, human; conditions: at 50 μM of test peptide; 100 nM PMA 2 hours
Excerpt: The human promyelocytic cell line (Fischkoff S A, Graded increase in probability of eosinophilic differentiation of HL-60 promyelocytic leukemia cells induced by culture under alkaline conditions. Leuk. Res., 12:679-686, 1988; Rosenberg H F, Ackerman S J, Tenen D G. Human eosinophil cationic protein: molecular cloning of a cytotoxin and helminthotoxin with ribonuclease activity. J. Exp. Med., 170:163-176, 1989), HL-60 clone 15, is eosinophil-like promyelocytic human cell line which was purchased from American Type Culture Collection (ATCC) Rockville, Md. (catalog #CRL-1964). The cells were maintained in medium consisting of RPMI 1640 with glutamine supplemented with 10% heat inactivated fetal bovine serum (Gibco, Carlsbad, Calif.), 50 IU/mL penicillin, 50 μg/mL streptomycin, and 25 mM HEPES buffer, pH 7.8 at 37° C. in an atmosphere containing 5% CO2. Final differentiation of an eosinophil-like phenotype was initiated by culturing the cells at 5×10^5 cells/mL in the above medium containing 0.5 mM butyric acid (Sigma-Aldrich) for 5 days as previously described by Tiffany H L, Li F, and Rosenberg H F, Hyperglycosylation of eosinophil ribonuclease in a promyelocytic leukemia cell line and in differentiated peripheral blood progenitor cells J. Leukoc. Biol. 58: 49-54, 1995; and by Tiffany H L, Alkhatib G, Combadiere C, Berger E A, and Murphy P M., CC Chemokine receptors are differentially regulated by IL-5 during maturation of eosinophilic HL-60 cells. J. Immunol. 160:1385-1392, 1998. The cells were washed and resuspended at 2.5×10^6 per mL in phenol free RPMI-1640 (Cellgro; Mediatech Inc.). Aliquots of cells in 15 mL plastic tubes were preincubated with indicated concentration of test peptide (dissolved in PBS, pH 7.0) for 10 minutes followed by treatment of the cells with 100 nM PMA for 2 hours. The reaction was terminated by placing the tubes on ice and centrifugation of cells at 400 g for 5 min at 4° C. The eosinophil peroxidase (EPO) activity released by HL-60 clone 15 cells was assayed using TMB according to a previously established technique Paige et al (see above) and by Lacy P, Mahmudi-Azer S, Bablitz B, Hagen S C, Velazquez J R, Man S F, Moqbel R. Rapid mobilization of intracellularly stored RANTES in response to interferon-gamma in human eosinophils. Blood 94:23-32, 1999. Briefly, add 50 μL aliquots of the supernatant to 96-well microtiter plate followed by addition of 100 μL of the tetramethylbenzidine (TMB) substrate solution and incubate at room temperature for 15 minutes. The reaction was terminated by addition of 50 μL of 1.0 M sulfuric acid and absorbance was read at 450 nm in a spectrophotometric microplate reader (Molecular Devices, Sunnyvale, Calif.). The amount of secreted EPO was expressed as percentage of total content using the amount obtained in the same number of triton X-100-lysed cells.
Because standard EPO from HL-60 clone 15 cells was not available to use for quantification, we measured both released and intracellular (from lysed cells) levels of EPO, and expressed the released EPO as a percentage of total (intracellular and released) for each. To measure intracellular EPO in HL-60 clone 15 cells, appropriate aliquots of 0.1% triton X-100-lysed cells were taken for quantification of intracellular EPO as described above. All data are expressed as percentage of control to minimize variability between cultures.

human neutrophils = assay: Human neutrophil chemotactic migration assay; assay type: cell-based; conditions: test peptide 50 μM; for Neutrophil Migration (% Inhibition), LTB4: LTB4 100 nM; for Neutrophil Migration (% Inhibition), LTB4 / Neutrophil Migration (% Inhibition), fMLP: 0 = inactive; for Neutrophil Migration (% Inhibition), PAF: PAF 100 nM; for Neutrophil Migration (% Inhibition), fMLP: fMLP 100 nM
Experimental: Human neutrophils were isolated from heparinized whole blood collected from healthy adult donors via cephalic venipuncture by a slightly modified method as described by Akasaki et al., 1999 (Akasaki T, Koga H, and Sumimoto H., Phosphoinositide 3-kinase-dependent and -independent activation of the small GTPase Rac2 in human neutrophils, J. Biol. Chem. 274:18055-18059, 1999). The blood was mixed with dextran (final concentration 1.4% dextran) and then allowed to settle for 60 minutes, after which time the leukocyte rich plasma was collected and layered onto 5 mL of Ficoll-Paque PLUS in 15 ml, conical tubes. The plasma was centrifuged at 1800 rpm for 20 minutes at room temperature. The residual erythrocytes were lysed utilizing a hypotonic saline and the remaining neutrophils were re-suspended in Hank's balanced salt solution containing 20 mM HEPES and 8.9 mM sodium bicarbonate without calcium or magnesium (HBSS), yielding neutrophils that were greater than 98% pure and greater than 99% viable.
Neutrophil migration assay was performed according to the method described by Frevert C W, Wong V A, Goodman R B, Goodwin R, and Martin T R., Rapid fluorescence-based measurement of neutrophil migration in vitro, J. Immunol. Methods, 213:41-52, 1998. Human neutrophils were labeled with the fluorescent dye calcein for 30 minutes at room temperature. Cells were then washed and resuspended in a migration buffer containing HBSS with 2% FCS. Cells were treated with buffer alone or with the indicated test peptide (50 μM) for 30 minutes at 37° C. Treated cells (1×10^4 cells) were then placed on the upper side of a ChemoTx® chemotaxis plate (Neuroprobe, Gaithersburg, Md.) membrane (2 μm pore size). Lower wells of the plate were filled with migration buffer alone or with buffer containing fMLP (100 nM), LTB4 (100 nM), or PAF (100 nM). Wells containing 1×10^4 labeled cells were used as standards to calculate migration percentage. Cells were allowed to migrate for 1 hour at 37° C. After incubation, cells on the top of the filter were washed away with PBS. Followed by this, 0.5 mM EDTA was added to the top of the filter for 5 min to detach adherent cells and the membrane was again washed. The plate was then centrifuged at 1000 rpm for 1 min. The filter was removed and the fluorescence was measured in the lower wells (485 nm excitation, 530 nm emission wavelength) using an fMax fluorescence plate reader (Molecular Devices, Sunnyvale, Calif.). Percent migration was determined by dividing the fluorescence of each well by the fluorescence of the standard wells containing 1×10^4 labeled cells. A lesser number of migrated neutrophils in the bottom compartment is indicative of the test peptide being an inhibitor of inflammation.

SMILES	% Inhibition Mucin [1] [%]	% Inhibition EPO (HL-60 clone 15 cells) [%]	Neutrophil Migration (% Inhibition), LTB4 (human neutrophils) [%]	Neutrophil Migration (% Inhibition), PAF (human neutrophils) [%]	Neutrophil Migration (% Inhibition), fMLP (human neutrophils) [%]
CCCCCCCCCCCCCC(=O)NCC(=O)N[C@@H](C)C(=O)N[C@@H](CCC(N)=O)C(=O)N[C@@H](Cc1ccccc1)C(=O)N[C@@H](CO)C(=O)N[C@@H](CCCCN)C(=O)N[C@H](C(=O)N[C@@H](C)C(=O)N[C@@H](C)C(=O)N[C@@H](CCCCN)C(=O)NCC(=O)N[C@@H](CCC(=O)O)C(=O)N[C@@H](C)C(=O)N[C@@H](C)C(=O)N[C@@H](C)C(=O)N[C@@H](CCC(=O)O)C(=O)N[C@@H](CCCNC(=N)N)C(=O)N1CCC[C@H]1C(=O)NCC(=O)N[C@@H](CCC(=O)O)C(=O)N[C@@H](C)C(=O)N[C@@H](C)C(=O)N[C@H](C(=O)N[C@@H](C)C(=O)O)C(C)C)[C@@H](C)O [MANS peptide] (Myristoyl-GAQFSKTAAKGEAAAERPGEAAVA-OH; C-terminus assumed)	81.5	46.1	91.8	86.4	90.0
CCCCCCCCCCCCCC(=O)NCC(=O)N[C@H](C(=O)N[C@@H](C)C(=O)N1CCC[C@H]1C(=O)N[C@@H](C)C(=O)N[C@@H](C)C(=O)N[C@@H](CCC(=O)O)C(=O)NCC(=O)N[C@@H](C)C(=O)NCC(=O)N[C@@H](C)C(=O)N[C@@H](CCC(=O)O)C(=O)N[C@H](C(=O)N[C@@H](CCCCN)C(=O)N[C@@H](CCCNC(=N)N)C(=O)N[C@@H](C)C(=O)N[C@@H](CO)C(=O)N[C@@H](C)C(=O)N[C@@H](CCC(=O)O)C(=O)N[C@@H](C)C(=O)N[C@@H](CCCCN)C(=O)N[C@@H](CCC(N)=O)C(=O)N[C@@H](C)C(=O)N[C@@H](Cc1ccccc1)C(=O)O)C(C)C)[C@@H](C)O [RNS peptide, reference compound] (Myristoyl-GTAPAAEGAGAEVKRASAEAKQAF-OH; C-terminus assumed)	0	0	0	62.1	0.7
CCCCCCCCCCCCCC(=O)NCC(=O)N[C@@H](C)C(=O)N[C@@H](CCC(N)=O)C(=O)N[C@@H](Cc1ccccc1)C(=O)N[C@@H](CO)C(=O)N[C@@H](CCCCN)C(=O)N[C@H](C(=O)N[C@@H](C)C(=O)N[C@@H](C)C(=O)N[C@@H](CCCCN)C(=O)NCC(=O)N[C@@H](CCC(=O)O)C(=O)O)[C@@H](C)O [SEQ ID NO: 13, N-myristoyl-GAQFSKTAAKGE] (Myristoyl-GAQFSKTAAKGE-OH; C-terminus assumed)	77	25.2	82.7	85.7	81.8
CCCCCCCCCCCCCC(=O)NCC(=O)N[C@@H](C)C(=O)N[C@@H](CCC(N)=O)C(=O)N[C@@H](Cc1ccccc1)C(=O)N[C@@H](CO)C(=O)N[C@@H](CCCCN)C(=O)N[C@H](C(=O)N[C@@H](C)C(=O)N[C@@H](C)C(=O)N[C@@H](CCCCN)C(=O)O)[C@@H](C)O [SEQ ID NO: 15, N-myristoyl-GAQFSKTAAK] (Myristoyl-GAQFSKTAAK-OH; C-terminus assumed)	67.5	37.4	85.5	87.2	88.6
